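GI50: concentration for 50% inhibition of growth. TGI: total growth inhibition.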
Experiments:
Test in all cases: NCI tumour cell line growth inhibition, 384-well format
HL-60(TB) leukemia = system: HL-60(TB) leukemia
MCF7 breast = system: MCF7 breast
M14 melanoma = system: M14 melanoma
TK-10 renal = system: TK-10 renal
RXF 393 renal = system: RXF 393 renal
SK-MEL-28 melanoma = system: SK-MEL-28 melanoma
NCI-H460 NSCLC = system: NCI-H460 NSCLC
MDA-MB-435 melanoma = system: MDA-MB-435 melanoma
OVCAR-4 ovarian = system: OVCAR-4 ovarian
NCI/ADR-RES ovarian = system: NCI/ADR-RES ovarian
EKVX NSCLC = system: EKVX NSCLC
MDA-MB-468 breast = system: MDA-MB-468 breast
NCI-H23 lung = system: NCI-H23 lung
PC-3 prostate = system: PC-3 prostate
SNB-19 CNS = system: SNB-19 CNS
HOP-92 NSCLC = system: HOP-92 NSCLC
MDA-MB-231 breast = system: MDA-MB-231 breast
HOP-62 NSCLC = system: HOP-62 NSCLC
UACC-257 melanoma = system: UACC-257 melanoma
NCI-H522 lung = system: NCI-H522 lung
HCC-2998 colon = system: HCC-2998 colon
UACC-62 melanoma = system: UACC-62 melanoma
KM12 colon = system: KM12 colon
SF-295 CNS = system: SF-295 CNS
SK-MEL-2 melanoma = system: SK-MEL-2 melanoma
COLO 205 colon = system: COLO 205 colon
RPMI-8226 leukemia = system: RPMI-8226 leukemia
OVCAR-5 ovarian = system: OVCAR-5 ovarian
MALME-3M melanoma = system: MALME-3M melanoma
BT-549 breast = system: BT-549 breast
MOLT-4 leukemia = system: MOLT-4 leukemia
ACHN renal = system: ACHN renal
NCI-H226 lung = system: NCI-H226 lung
OVCAR-3 ovarian = system: OVCAR-3 ovarian
786-0 renal = system: 786-0 renal
DU-145 prostate = system: DU-145 prostate
NCI-H322M lung = system: NCI-H322M lung
A549 NSCLC = system: A549 NSCLC
SR leukemia = system: SR leukemia
SF-268 CNS = system: SF-268 CNS
SN12C renal = system: SN12C renal
SF-539 CNS = system: SF-539 CNS
U251 glioblastoma = system: U251 glioblastoma
SK-MEL-5 melanoma = system: SK-MEL-5 melanoma
HS 578T breast = system: HS 578T breast
OVCAR-8 ovarian = system: OVCAR-8 ovarian
SK-OV-3 ovarian = system: SK-OV-3 ovarian
SNB-75 CNS = system: SNB-75 CNS
CCRF-CEM leukemia = system: CCRF-CEM leukemia
A498 renal = system: A498 renal
HT29 colon = system: HT29 colon
CAKI-1 renal = system: CAKI-1 renal
HCT-15 colon = system: HCT-15 colon
SW-620 colon = system: SW-620 colon
IGROV1 ovarian = system: IGROV1 ovarian
T-47D breast = system: T-47D breast

## NCC(=O)CCC(=O)O
HL-60(TB) leukemia
  GI50: > 100 µM
  TGI: > 100 µM
MCF7 breast
  GI50: > 100 µM
  TGI: > 100 µM
M14 melanoma
  GI50: > 100 µM
  TGI: > 100 µM
TK-10 renal
  GI50: > 100 µM
  TGI: > 100 µM
RXF 393 renal
  GI50: > 100 µM
  TGI: > 100 µM
SK-MEL-28 melanoma
  GI50: > 100 µM
  TGI: > 100 µM
NCI-H460 NSCLC
  GI50: > 100 µM
  TGI: > 100 µM
MDA-MB-435 melanoma
  GI50: > 100 µM
  TGI: > 100 µM
OVCAR-4 ovarian
  GI50: 62.9 µM
  TGI: > 100 µM
NCI/ADR-RES ovarian
  GI50: > 100 µM
  TGI: > 100 µM
EKVX NSCLC
  GI50: > 100 µM
  TGI: > 100 µM
MDA-MB-468 breast
  GI50: 26.7 µM
  TGI: 74.7 µM
NCI-H23 lung
  GI50: > 100 µM
  TGI: > 100 µM
PC-3 prostate
  GI50: > 100 µM
  TGI: > 100 µM
SNB-19 CNS
  GI50: > 100 µM
  TGI: > 100 µM
HOP-92 NSCLC
  GI50: > 100 µM
  TGI: > 100 µM
MDA-MB-231 breast
  GI50: > 100 µM
  TGI: > 100 µM
HOP-62 NSCLC
  GI50: > 100 µM
  TGI: > 100 µM
UACC-257 melanoma
  GI50: > 100 µM
  TGI: > 100 µM
NCI-H522 lung
  GI50: > 100 µM
  TGI: > 100 µM
HCC-2998 colon
  GI50: > 100 µM
  TGI: > 100 µM
UACC-62 melanoma
  GI50: > 100 µM
  TGI: > 100 µM
KM12 colon
  GI50: > 100 µM
  TGI: > 100 µM
SF-295 CNS
  GI50: > 100 µM
  TGI: > 100 µM
SK-MEL-2 melanoma
  GI50: > 100 µM
  TGI: > 100 µM
COLO 205 colon
  GI50: > 100 µM
  TGI: > 100 µM
RPMI-8226 leukemia
  GI50: > 100 µM
  TGI: > 100 µM
OVCAR-5 ovarian
  GI50: > 100 µM
  TGI: > 100 µM
MALME-3M melanoma
  GI50: > 100 µM
  TGI: > 100 µM
BT-549 breast
  GI50: > 100 µM
  TGI: > 100 µM
MOLT-4 leukemia
  GI50: 73.2 µM
  TGI: > 100 µM
ACHN renal
  GI50: > 100 µM
  TGI: > 100 µM
NCI-H226 lung
  GI50: > 100 µM
  TGI: > 100 µM
OVCAR-3 ovarian
  GI50: > 100 µM
  TGI: > 100 µM
786-0 renal
  GI50: > 100 µM
  TGI: > 100 µM
DU-145 prostate
  GI50: > 100 µM
  TGI: > 100 µM
NCI-H322M lung
  GI50: > 100 µM
  TGI: > 100 µM
A549 NSCLC
  GI50: > 100 µM
  TGI: > 100 µM
SR leukemia
  GI50: > 100 µM
  TGI: > 100 µM
SF-268 CNS
  GI50: > 100 µM
  TGI: > 100 µM
SN12C renal
  GI50: > 100 µM
  TGI: > 100 µM
SF-539 CNS
  GI50: > 100 µM
  TGI: > 100 µM
U251 glioblastoma
  GI50: > 100 µM
  TGI: > 100 µM
SK-MEL-5 melanoma
  GI50: > 100 µM
  TGI: > 100 µM
HS 578T breast
  GI50: > 100 µM
  TGI: > 100 µM
OVCAR-8 ovarian
  GI50: > 100 µM
  TGI: > 100 µM
SK-OV-3 ovarian
  GI50: 45.2 µM
  TGI: > 100 µM
SNB-75 CNS
  GI50: > 100 µM
  TGI: > 100 µM
CCRF-CEM leukemia
  GI50: 62.4 µM
  TGI: > 100 µM
A498 renal
  GI50: > 100 µM
  TGI: > 100 µM
HT29 colon
  GI50: > 100 µM
  TGI: > 100 µM
CAKI-1 renal
  GI50: > 100 µM
  TGI: > 100 µM
HCT-15 colon
  GI50: > 100 µM
  TGI: > 100 µM
SW-620 colon
  GI50: > 100 µM
  TGI: > 100 µM
IGROV1 ovarian
  GI50: > 100 µM
  TGI: > 100 µM
T-47D breast
  GI50: > 100 µM
  TGI: > 100 µM
